According to ChEMBL document CHEMBL3608278 (J Med Chem, 2015):

Key:
[1] = biological target: T1, Potassium voltage-gated channel subfamily A member 3 (Homo sapiens, UniProt P22001); test: cell-based; design: species or system Blood
[2] = biological target: T1, Potassium voltage-gated channel subfamily A member 3; design: species or system Blood

T1 sequence (P22001 whole entry): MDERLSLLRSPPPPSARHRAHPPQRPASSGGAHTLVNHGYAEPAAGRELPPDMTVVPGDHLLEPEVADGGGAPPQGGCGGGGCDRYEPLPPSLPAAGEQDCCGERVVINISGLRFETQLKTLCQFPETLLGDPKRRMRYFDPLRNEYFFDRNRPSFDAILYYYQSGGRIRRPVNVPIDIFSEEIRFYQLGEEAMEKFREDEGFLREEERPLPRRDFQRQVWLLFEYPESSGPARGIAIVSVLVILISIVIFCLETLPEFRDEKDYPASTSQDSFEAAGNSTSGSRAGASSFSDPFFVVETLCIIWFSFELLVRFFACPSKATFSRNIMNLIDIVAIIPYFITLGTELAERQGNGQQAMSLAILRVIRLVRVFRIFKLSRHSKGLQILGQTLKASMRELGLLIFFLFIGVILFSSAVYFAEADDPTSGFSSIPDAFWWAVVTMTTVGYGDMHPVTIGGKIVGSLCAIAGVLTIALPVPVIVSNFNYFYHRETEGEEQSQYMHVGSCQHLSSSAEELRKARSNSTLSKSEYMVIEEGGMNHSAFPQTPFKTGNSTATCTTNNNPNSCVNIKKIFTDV

| Compound | IC50 [1] [nM] | IC50 [2] [nM] |
| --- | --- | --- |
| CC[C@H](C)[C@@H]1NC(=O)[C@@H](NC(=O)[C@H](CO)NC(=O)[C@@H](N)CCCNC(=N)N)CSSC[C@@H](C(=O)O)NC(=O)[C@H]([C@@H](C)O)NC(=O)CNC(=O)[C@@H]2CSSC[C@@H]3NC(=O)[C@H](CCC(N)=O)NC(=O)[C@H](Cc4ccccc4)NC(=O)[C@H](C)NC(=O)[C@H]([C@@H](C)O)NC(=O)[C@H](CSSC[C@H](NC(=O)[C@H](Cc4ccccc4)NC(=O)[C@H](CO)NC(=O)[C@H](CC(C)C)NC(=O)[C@H](CCCNC(=N)N)NC(=O)[C@H](Cc4ccc(O)cc4)NC(=O)[C@H](CCCCN)NC(=O)[C@H](CCSC)NC(=O)[C@H](CO)NC(=O)[C@H](Cc4cnc[nH]4)NC(=O)[C@H](CCCCN)NC3=O)C(=O)N[C@@H](CCCNC(=N)N)C(=O)N[C@@H](CCCCN)C(=O)N[C@@H]([C@@H](C)O)C(=O)N2)NC(=O)[C@H](CCCNC(=N)N)NC(=O)[C@H](CO)NC(=O)[C@H](CCCCN)NC(=O)[C@@H]2CCCN2C(=O)[C@H](CCCNC(=N)N)NC(=O)[C@H]([C@@H](C)O)NC(=O)[C@H](CC(=O)O)NC1=O | 6.56 | 10.1 |
| CC[C@H](C)[C@@H]1NC(=O)[C@@H](NC(=O)[C@H](CO)NC(=O)[C@@H](N)CCCNC(=N)N)CSSC[C@@H](C(=O)O)NC(=O)[C@H]([C@@H](C)O)NC(=O)CNC(=O)[C@@H]2CSSC[C@@H]3NC(=O)[C@H](CCC(N)=O)NC(=O)[C@H](Cc4ccccc4)NC(=O)[C@H](C)NC(=O)[C@H]([C@@H](C)O)NC(=O)[C@H](CSSC[C@H](NC(=O)[C@H](Cc4ccccc4)NC(=O)[C@H](CCC(=O)O)NC(=O)[C@H](CC(C)C)NC(=O)[C@H](CCCNC(=N)N)NC(=O)[C@H](Cc4ccc(O)cc4)NC(=O)[C@H](CCCCN)NC(=O)[C@H](CCSC)NC(=O)[C@H](CO)NC(=O)[C@H](Cc4cnc[nH]4)NC(=O)[C@H](CCCCN)NC3=O)C(=O)N[C@@H](CCCNC(=N)N)C(=O)N[C@@H](CCCCN)C(=O)N[C@@H]([C@@H](C)O)C(=O)N2)NC(=O)[C@H](CCCNC(=N)N)NC(=O)[C@H](CO)NC(=O)[C@H](CCCCN)NC(=O)[C@@H]2CCCN2C(=O)[C@H]([C@@H](C)CC)NC(=O)[C@H]([C@@H](C)O)NC(=O)[C@H](CC(=O)O)NC1=O | 0.202 | 0.4 |
| CC[C@H](C)[C@@H]1NC(=O)[C@@H](NC(=O)[C@H](CO)NC(=O)[C@@H](N)CCCNC(=N)N)CSSC[C@@H](C(=O)O)NC(=O)[C@H]([C@@H](C)O)NC(=O)CNC(=O)[C@@H]2CSSC[C@@H]3NC(=O)[C@H](CCC(N)=O)NC(=O)[C@H](Cc4ccccc4)NC(=O)[C@H](C)NC(=O)[C@H]([C@@H](C)O)NC(=O)[C@H](CSSC[C@H](NC(=O)[C@H](Cc4ccccc4)NC(=O)[C@H](CO)NC(=O)[C@H](CC(C)C)NC(=O)[C@H](CCCNC(=N)N)NC(=O)[C@H](Cc4ccc(O)cc4)NC(=O)[C@H](CCCCN)NC(=O)[C@H](CCSC)NC(=O)[C@H](CO)NC(=O)[C@H](Cc4cnc[nH]4)NC(=O)[C@H](CCCCN)NC3=O)C(=O)N[C@@H](CCC(=O)O)C(=O)N[C@@H](CCCCN)C(=O)N[C@@H]([C@@H](C)O)C(=O)N2)NC(=O)[C@H](CCCNC(=N)N)NC(=O)[C@H](CO)NC(=O)[C@H](CCCCN)NC(=O)[C@@H]2CCCN2C(=O)[C@H]([C@@H](C)CC)NC(=O)[C@H]([C@@H](C)O)NC(=O)[C@H](CC(=O)O)NC1=O | 0.73 | 1.96 |
| CC[C@H](C)[C@@H]1NC(=O)[C@@H](NC(=O)[C@H](CCCNC(=N)N)NC(=O)[C@@H](N)CCCNC(=N)N)CSSC[C@@H](C(=O)O)NC(=O)[C@H]([C@@H](C)O)NC(=O)CNC(=O)[C@@H]2CSSC[C@@H]3NC(=O)[C@H](CCC(N)=O)NC(=O)[C@H](Cc4ccccc4)NC(=O)[C@H](C)NC(=O)[C@H]([C@@H](C)O)NC(=O)[C@H](CSSC[C@H](NC(=O)[C@H](Cc4ccccc4)NC(=O)[C@H](CO)NC(=O)[C@H](CC(C)C)NC(=O)[C@H](CCCNC(=N)N)NC(=O)[C@H](Cc4ccc(O)cc4)NC(=O)[C@H](CCCCN)NC(=O)[C@H](CCSC)NC(=O)[C@H](CO)NC(=O)[C@H](Cc4cnc[nH]4)NC(=O)[C@H](CCCCN)NC3=O)C(=O)N[C@@H](CCCNC(=N)N)C(=O)N[C@@H](CCCCN)C(=O)N[C@@H]([C@@H](C)O)C(=O)N2)NC(=O)[C@H](CCCNC(=N)N)NC(=O)[C@H](CO)NC(=O)[C@H](CCCCN)NC(=O)[C@@H]2CCCN2C(=O)[C@H]([C@@H](C)CC)NC(=O)[C@H]([C@@H](C)O)NC(=O)[C@H](CC(=O)O)NC1=O | 0.087 | 0.116 |
| CC[C@H](C)[C@@H]1NC(=O)[C@H]([C@@H](C)O)NC(=O)[C@H](CC(=O)O)NC(=O)[C@H](CCCNC(=N)N)NC(=O)[C@@H](NC(=O)[C@H](CO)NC(=O)[C@@H](N)CCCNC(=N)N)CSSC[C@@H](C(=O)O)NC(=O)[C@H]([C@@H](C)O)NC(=O)CNC(=O)[C@@H]2CSSC[C@@H]3NC(=O)[C@H](CCC(N)=O)NC(=O)[C@H](Cc4ccccc4)NC(=O)[C@H](C)NC(=O)[C@H]([C@@H](C)O)NC(=O)[C@H](CSSC[C@H](NC(=O)[C@H](Cc4ccccc4)NC(=O)[C@H](CO)NC(=O)[C@H](CC(C)C)NC(=O)[C@H](CCCNC(=N)N)NC(=O)[C@H](Cc4ccc(O)cc4)NC(=O)[C@H](CCCCN)NC(=O)[C@H](CCSC)NC(=O)[C@H](CO)NC(=O)[C@H](Cc4cnc[nH]4)NC(=O)[C@H](CCCCN)NC3=O)C(=O)N[C@@H](CCCNC(=N)N)C(=O)N[C@@H](CCCCN)C(=O)N[C@@H]([C@@H](C)O)C(=O)N2)NC(=O)[C@H](CCCNC(=N)N)NC(=O)[C@H](CO)NC(=O)[C@H](CCCCN)NC(=O)[C@@H]2CCCN2C1=O | 0.098 | 0.123 |
| CC[C@H](C)[C@@H]1NC(=O)[C@@H](NC(=O)[C@H](CO)NC(=O)[C@@H](N)CCCNC(=N)N)CSSC[C@@H](C(=O)O)NC(=O)[C@H]([C@@H](C)O)NC(=O)CNC(=O)[C@@H]2CSSC[C@@H]3NC(=O)[C@H](CCC(N)=O)NC(=O)[C@H](Cc4ccccc4)NC(=O)[C@H](C)NC(=O)[C@H]([C@@H](C)O)NC(=O)[C@H](CSSC[C@H](NC(=O)[C@H](Cc4ccccc4)NC(=O)[C@H](CO)NC(=O)[C@H](CC(C)C)NC(=O)[C@H](CCCNC(=N)N)NC(=O)[C@H](Cc4ccc(O)cc4)NC(=O)[C@H](CCCCN)NC(=O)[C@H](CCSC)NC(=O)[C@H](CO)NC(=O)[C@H](Cc4c[nH]cn4)NC(=O)[C@H](CCCCN)NC3=O)C(=O)N[C@@H](CCCNC(=N)N)C(=O)N[C@@H](CCCCN)C(=O)N[C@@H]([C@@H](C)O)C(=O)N2)NC(=O)[C@H](CCCNC(=N)N)NC(=O)[C@H](CO)NC(=O)[C@H](CCCCN)NC(=O)[C@@H]2CCCN2C(=O)[C@H]([C@@H](C)CC)NC(=O)[C@H](CCCNC(=N)N)NC(=O)[C@H](CC(=O)O)NC1=O | 0.215 | 0.304 |
| CC[C@H](C)[C@@H]1NC(=O)[C@@H](NC(=O)[C@H](CO)NC(=O)[C@@H](N)CCCNC(=N)N)CSSC[C@@H](C(=O)O)NC(=O)[C@H]([C@@H](C)O)NC(=O)CNC(=O)[C@@H]2CSSC[C@@H]3NC(=O)[C@H](CCC(N)=O)NC(=O)[C@H](Cc4ccccc4)NC(=O)[C@H](C)NC(=O)[C@H]([C@@H](C)O)NC(=O)[C@H](CSSC[C@H](NC(=O)[C@H](Cc4ccccc4)NC(=O)[C@H](CO)NC(=O)[C@H](CC(C)C)NC(=O)[C@H](CCCNC(=N)N)NC(=O)[C@H](Cc4ccc(O)cc4)NC(=O)[C@H](CCCCN)NC(=O)[C@H](CCSC)NC(=O)[C@H](CO)NC(=O)[C@H](Cc4cnc[nH]4)NC(=O)[C@H](CCCCN)NC3=O)C(=O)N[C@@H](CCCNC(=N)N)C(=O)N[C@@H](Cc3cccc4ccccc34)C(=O)N[C@@H]([C@@H](C)O)C(=O)N2)NC(=O)[C@H](CCCNC(=N)N)NC(=O)[C@H](CO)NC(=O)[C@H](CCCCN)NC(=O)[C@@H]2CCCN2C(=O)[C@H]([C@@H](C)CC)NC(=O)[C@H]([C@@H](C)O)NC(=O)[C@H](CC(=O)O)NC1=O | 0.082 | 0.148 |
| CC[C@H](C)[C@@H]1NC(=O)[C@@H](NC(=O)[C@H](CO)NC(=O)[C@@H](N)CCCNC(=N)N)CSSC[C@@H](C(=O)O)NC(=O)[C@H]([C@@H](C)O)NC(=O)CNC(=O)[C@@H]2CSSC[C@@H]3NC(=O)[C@H](CCC(N)=O)NC(=O)[C@H](Cc4ccccc4)NC(=O)[C@H](C)NC(=O)[C@H]([C@@H](C)O)NC(=O)[C@H](CSSC[C@H](NC(=O)[C@H](Cc4ccccc4)NC(=O)[C@H](CO)NC(=O)[C@H](CC(C)C)NC(=O)[C@H](CCCNC(=N)N)NC(=O)[C@H](Cc4ccc(O)cc4)NC(=O)[C@H](CCCCN)NC(=O)[C@H](CCSC)NC(=O)[C@H](CO)NC(=O)[C@H](Cc4c[nH]cn4)NC(=O)[C@H](CCCCN)NC3=O)C(=O)N[C@@H](CCCNC(=N)N)C(=O)N[C@@H](CCCCN)C(=O)N[C@@H]([C@@H](C)O)C(=O)N2)NC(=O)[C@H](CCCNC(=N)N)NC(=O)[C@H](CO)NC(=O)[C@H](CCCCN)NC(=O)[C@@H]2CCCN2C(=O)[C@H]([C@@H](C)CC)NC(=O)[C@H](CCC(=O)O)NC(=O)[C@H](CC(=O)O)NC1=O | 0.074 | 0.109 |
| CC[C@H](C)[C@@H]1NC(=O)[C@@H](NC(=O)[C@H](CO)NC(=O)[C@@H](N)CCCNC(=N)N)CSSC[C@@H](C(=O)O)NC(=O)[C@H]([C@@H](C)O)NC(=O)CNC(=O)[C@@H]2CSSC[C@@H]3NC(=O)[C@H](CCC(N)=O)NC(=O)[C@H](Cc4ccccc4)NC(=O)[C@H](C)NC(=O)[C@H]([C@@H](C)O)NC(=O)[C@H](CSSC[C@H](NC(=O)[C@H](Cc4ccccc4)NC(=O)[C@H](CO)NC(=O)[C@H](CC(C)C)NC(=O)[C@H](CCCNC(=N)N)NC(=O)[C@H](Cc4ccc(O)cc4)NC(=O)[C@H](CCCCN)NC(=O)[C@H](CCSC)NC(=O)[C@H](CO)NC(=O)[C@H](Cc4cnc[nH]4)NC(=O)[C@H](CCCCN)NC3=O)C(=O)N[C@@H](CCCNC(=N)N)C(=O)N[C@@H](CCCCN)C(=O)N[C@@H]([C@@H](C)O)C(=O)N2)NC(=O)[C@H](CCCNC(=N)N)NC(=O)[C@H](CCC(=O)O)NC(=O)[C@H](CCCCN)NC(=O)[C@@H]2CCCN2C(=O)[C@H]([C@@H](C)CC)NC(=O)[C@H]([C@@H](C)O)NC(=O)[C@H](CC(=O)O)NC1=O | 0.023 | 0.055 |
